Assay results taken from ChEMBL document CHEMBL3886972, “Chemical entities” (2016).

Experiments:
[1] = target: PI3-kinase p110-alpha/p85-alpha (Homo sapiens, UniProt P42336); experiment: null: The kinase activity was measured by using the commercial ADP Hunter Plus assay available from DiscoveRx (#33-016), which is a homogeneous assay to measure the accumulation of ADP, a universal product of kinase activity. […] The reaction was carried out for 1 hour at 25° C. Reagent A and B were sequentially added to the wells and plates were incubated for 30 min at 37° C. Fluorescence counts were read in a Victor instrument (Perkin Elmer) with the recommended settings (544 and 580 nm as excitation and emission wavelengths, respectively).; assay type: protein-complex assay
[2] = target: DNA-dependent protein kinase catalytic subunit (Homo sapiens, UniProt P78527); experiment: ADP Hunter Plus Assay: The kinase activity was measured by using the commercial ADP Hunter Plus assay available from DiscoveRx (#90-0083), which is a homogeneous assay to measure the accumulation of ADP, a universal product of kinase activity. The enzyme, DNA-PK was purchased from Promega (#V5811). The assay was done following the manufacturer recommendations with slight modifications: Mainly the kinase buffer was replace by 15 mM HEPES, pH 7.5, 10 mM MgCl2, 20 mM NaCl, 1 mM EGTA, 0.1 mg/mL BGG, 0.02% Tween 20. The DNA-PK was assayed in a titration experiment to determine the optimal protein concentration for the inhibition assay. To calculate the […] of the Compounds, serial 1:3 dilutions of the compounds were added to the enzyme at a fixed concentration (2 U/uL). The enzyme was preincubated with the inhibitor and 200 uM DNA substrate and then ATP was added to a final 75 uM concentration. Reaction was carried out for 1 hour at 37° C. Reagent A and B were sequentially added to the wells and plates were incubated for 30 min at RT. Fluorescence counts were read in a EnVision instrument (Perkin Elmer) with the recommended settings (550 and 590 nm as excitation and emission wavelengths, respectively).

Sequence of PI3-kinase p110-alpha/p85-alpha (P27986 whole entry): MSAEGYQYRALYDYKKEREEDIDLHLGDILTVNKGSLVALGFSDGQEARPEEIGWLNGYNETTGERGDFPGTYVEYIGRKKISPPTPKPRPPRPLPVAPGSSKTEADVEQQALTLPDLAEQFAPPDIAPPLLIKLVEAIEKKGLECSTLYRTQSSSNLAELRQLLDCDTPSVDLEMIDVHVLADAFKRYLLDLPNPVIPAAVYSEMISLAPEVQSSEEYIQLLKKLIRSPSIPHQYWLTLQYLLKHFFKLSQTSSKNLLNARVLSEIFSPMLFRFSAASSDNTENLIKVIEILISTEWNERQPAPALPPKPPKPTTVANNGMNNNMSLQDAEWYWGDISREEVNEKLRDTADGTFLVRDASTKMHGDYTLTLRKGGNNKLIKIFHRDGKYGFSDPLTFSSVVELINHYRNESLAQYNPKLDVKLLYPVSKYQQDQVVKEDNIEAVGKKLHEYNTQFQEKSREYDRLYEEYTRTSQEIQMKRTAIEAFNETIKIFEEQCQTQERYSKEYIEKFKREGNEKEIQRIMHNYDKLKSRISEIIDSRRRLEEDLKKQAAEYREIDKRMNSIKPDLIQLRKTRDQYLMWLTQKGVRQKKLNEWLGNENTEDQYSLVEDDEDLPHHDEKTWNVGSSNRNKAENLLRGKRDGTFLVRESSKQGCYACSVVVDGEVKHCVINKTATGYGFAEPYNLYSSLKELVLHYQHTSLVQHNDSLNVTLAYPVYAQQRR
Sequence of PI3-kinase p110-alpha/p85-alpha (P42336 whole entry): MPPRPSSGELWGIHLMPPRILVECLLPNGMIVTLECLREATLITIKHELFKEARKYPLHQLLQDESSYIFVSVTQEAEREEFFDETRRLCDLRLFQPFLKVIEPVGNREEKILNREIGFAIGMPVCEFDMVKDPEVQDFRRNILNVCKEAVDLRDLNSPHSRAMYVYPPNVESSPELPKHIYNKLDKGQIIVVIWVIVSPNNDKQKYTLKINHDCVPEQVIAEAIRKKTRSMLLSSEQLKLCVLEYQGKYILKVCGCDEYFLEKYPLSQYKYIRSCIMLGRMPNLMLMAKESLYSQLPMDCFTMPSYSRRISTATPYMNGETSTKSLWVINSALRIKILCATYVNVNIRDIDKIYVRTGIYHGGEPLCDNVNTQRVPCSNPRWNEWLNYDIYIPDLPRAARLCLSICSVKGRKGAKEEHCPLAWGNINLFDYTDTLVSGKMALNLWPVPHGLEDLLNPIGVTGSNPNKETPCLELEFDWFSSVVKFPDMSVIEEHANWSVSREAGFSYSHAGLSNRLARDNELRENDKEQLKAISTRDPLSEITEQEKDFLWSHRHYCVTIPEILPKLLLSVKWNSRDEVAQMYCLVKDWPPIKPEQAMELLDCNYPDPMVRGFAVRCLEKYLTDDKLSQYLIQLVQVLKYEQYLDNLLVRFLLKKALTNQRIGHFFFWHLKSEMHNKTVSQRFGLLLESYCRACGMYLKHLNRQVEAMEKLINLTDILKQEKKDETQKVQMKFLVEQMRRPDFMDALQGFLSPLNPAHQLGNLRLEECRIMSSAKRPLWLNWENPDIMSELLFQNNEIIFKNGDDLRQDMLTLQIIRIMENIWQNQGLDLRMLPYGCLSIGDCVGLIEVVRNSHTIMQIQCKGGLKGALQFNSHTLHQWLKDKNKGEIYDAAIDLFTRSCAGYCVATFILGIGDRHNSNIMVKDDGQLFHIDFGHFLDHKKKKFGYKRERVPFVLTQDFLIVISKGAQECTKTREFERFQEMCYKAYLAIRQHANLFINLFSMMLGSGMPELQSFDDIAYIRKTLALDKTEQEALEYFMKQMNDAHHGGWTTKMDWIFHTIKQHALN

Q: How did the IC50 [1] turn out when CC(C)(c1nc(-c2cccc3[nH]ccc23)nc2c1OCC[C@H]1COCCN21)S(C)(=O)=O was run?
A: 19.3 µM

Q: Which IC50 [2] does the source give for CNc1nc2ccccc2n1-c1nc2c(c(C3(S(C)(=O)=O)CCOCC3)n1)OCC1COCCN21 (stereo not given) here?
A: 10 µM

Q: And the IC50 [1]?
A: ≥ 50 µM

Q: How did the IC50 [1] turn out when CC(C)(c1nc(-c2c(F)ccc3[nH]ccc23)nc2c1OCC1COCCN21)S(C)(=O)=O (stereo not given) was run?
A: 7.9 µM

Q: With CCOC(=O)N1CCC(c2nc(-c3cccc4[nH]ccc34)nc3c2OC[C@@H]2COCCN32)(S(C)(=O)=O)CC1 as the compound, how does the IC50 [2] read?
A: 10 µM

Q: And the IC50 [1]?
A: 7.38 µM

Q: Which IC50 [2] does the source give for CS(=O)(=O)C1(c2nc(-c3cccc4[nH]ccc34)nc3c2OCC[C@@H]2COCCN32)CCOCC1 here?
A: ≥ 25 µM

Q: What about the IC50 [1] of the same compound?
A: ≥ 50 µM

Q: CS(=O)(=O)C1(c2nc(-c3cccc4[nH]ccc34)nc3c2OC[C@@H]2COCCN32)CCOCC1 was tested. Which IC50 [1] did it give?
A: 4.9 µM

Q: What does the source list for CS(=O)(=O)C1(c2nc(-c3cccc4[nH]ccc34)nc3c2OC[C@@H]2COCCN32)CCNCC1?
A: IC50 [2]: 4.93 µM; IC50 [1]: 1.98 µM

Q: What does the source list for O=S(=O)(Cc1nc(-c2cccc3[nH]ccc23)nc2c1OCC1COCCN21)C(F)(F)F (stereo not given)?
A: IC50 [2]: ≥ 25 µM; IC50 [1]: 14.9 µM

Q: Which IC50 [2] does the source give for CNc1nc2ccccc2n1-c1nc2c(c(C(C)(C)[S@TB1](C)(=O)=O)n1)OCCC1COCCN21 (stereo not given) here?
A: 1.88 µM

Q: How did the IC50 [2] turn out when CN1CCC(c2nc(-c3cccc4[nH]ccc34)nc3c2OCC2COCCN32)(S(C)(=O)=O)CC1 (stereo not given) was run?
A: ≥ 25 µM

Q: What about the IC50 [1] of the same compound?
A: 12.5 µM

Q: Which results are given for CS(=O)(=O)C1(c2nc(-c3cncc4[nH]ccc34)nc3c2OCC2COCCN32)CCOCC1 (stereo not given)?
A: IC50 [2]: ≥ 25 µM; IC50 [1]: 2 µM

Q: CC(C)(c1nc(-c2ccnc3[nH]ccc23)nc2c1OCC1COCCN21)S(C)(=O)=O (stereo not given) was tested. Which IC50 [2] did it give?
A: 2.82 µM

Q: What about the IC50 [1] of the same compound?
A: 0.67 µM

Q: Which IC50 [2] does the source give for c1cc(-c2nc(-c3cccc4[nH]ccc34)c3c(n2)N2CCOCC2CO3)c2cc[nH]c2c1 (stereo not given) here?
A: 10 µM

Q: What about the IC50 [1] of the same compound?
A: 6.55 µM

Q: For CS(=O)(=O)C1(c2nc(-c3ccnc4[nH]ccc34)nc3c2OCC2COCCN32)CCOCC1 (stereo not given), which IC50 [2] is on record?
A: 10 µM

Q: What about the IC50 [1] of the same compound?
A: 8.5 µM

Q: What does the source list for C[S@TB17](=O)(=O)C1(c2nc(-c3cc(F)cc4[nH]ccc34)nc3c2OCCC2COCCN32)CCOCC1 (stereo not given)?
A: IC50 [2]: ≥ 25 µM; IC50 [1]: > 10 µM

Q: What does the source list for CS(=O)(=O)C1(c2nc(-c3c(F)ccc4[nH]ccc34)nc3c2OCC2COCCN32)CCOCC1 (stereo not given)?
A: IC50 [2]: 10 µM; IC50 [1]: 21 µM

Q: How did the IC50 [2] turn out when Cc1cc2c(-c3nc4c(c(C5(S(C)(=O)=O)CCOCC5)n3)OCC3COCCN43)cccc2[nH]1 (stereo not given) was run?
A: ≥ 25 µM

Q: What about the IC50 [1] of the same compound?
A: 10.3 µM

Q: For COc1ccc(-c2nc3c(c(C4(S(C)(=O)=O)CCOCC4)n2)OCC2COCCN32)c2cc[nH]c12 (stereo not given), which IC50 [2] is on record?
A: ≥ 25 µM

Q: What about the IC50 [1] of the same compound?
A: 16.9 µM

Q: For CS(=O)(=O)C1(c2nc(-c3cc(F)cc4[nH]ccc34)nc3c2OCC2COCCN32)CCOCC1 (stereo not given), which IC50 [2] is on record?
A: 10 µM

Q: And the IC50 [1]?
A: 6 µM

Q: What does the source list for COc1cc(-c2nc3c(c(C4([S@TB1](C)(=O)=O)CCOCC4)n2)OCCC2COCCN32)c2cc[nH]c2c1 (stereo not given)?
A: IC50 [2]: ≥ 25 µM; IC50 [1]: 23.3 µM

Q: With CC(C)Nc1nc2ccccc2n1-c1nc2c(c(C(C)(C)S(C)(=O)=O)n1)OC[C@@H]1COCCN21 as the compound, how does the IC50 [2] read?
A: 4.3 µM

Q: And the IC50 [1]?
A: 6.61 µM

Q: CCCNc1nc2ccccc2n1-c1nc2c(c(C(C)(C)S(C)(=O)=O)n1)OC[C@@H]1COCCN21 was tested. Which IC50 [2] did it give?
A: 6.65 µM

Q: What about the IC50 [1] of the same compound?
A: 6.25 µM

Q: Which IC50 [2] does the source give for CCNc1nc2ccccc2n1-c1nc2c(c(C(C)(C)S(C)(=O)=O)n1)OC[C@@H]1COCCN21 here?
A: 0.196 µM

Q: And the IC50 [1]?
A: 2.65 µM

Q: Which results are given for CNc1nc2ccc(Cl)cc2n1-c1nc2c(c(C3(S(C)(=O)=O)CCC3)n1)OC[C@@H]1COCCN21?
A: IC50 [2]: 10 µM; IC50 [1]: ≥ 50 µM

Q: How did the IC50 [2] turn out when C[S@TB17](=O)(=O)Nc1nc(-c2cccc3[nH]ccc23)nc2c1OCC1COCCN21 (stereo not given) was run?
A: 10 µM

Q: What about the IC50 [1] of the same compound?
A: 6.95 µM

Q: CC(C)(c1nc(-c2cccc3[nH]ncc23)nc2c1OC[C@H]1COCCN21)S(C)(=O)=O was tested. Which IC50 [2] did it give?
A: 4.15 µM

Q: And the IC50 [1]?
A: 0.4 µM

Q: Which IC50 [1] does the source give for CC(C)(c1nc(-c2cccc3[nH]ccc23)nc2c1OCC1COCCN21)S(=O)(=O)C1CC1 (stereo not given) here?
A: 2.4 µM

Q: How did the IC50 [1] turn out when CS(=O)(=O)C1(c2nc(-c3cccc4[nH]ccc34)nc3c2OCC2COCCN32)CCOCC1 (stereo not given) was run?
A: 13.3 µM

Q: For CNc1nc2ccccc2n1-c1nc2c(c(C(C)(C)S(C)(=O)=O)n1)OC[C@@H]1COCCN21, which IC50 [2] is on record?
A: 1.51 µM

Q: And the IC50 [1]?
A: 1.9 µM

Q: How did the IC50 [2] turn out when COc1cc(-c2nc3c(c(C4(S(C)(=O)=O)CCOCC4)n2)OCC2COCCN32)c2cc[nH]c2c1 (stereo not given) was run?
A: 10 µM

Q: And the IC50 [1]?
A: 5 µM

Q: For CS(=O)(=O)c1cccc(-c2nc(-c3cccc4[nH]ccc34)nc3c2OCC2COCCN32)c1 (stereo not given), which IC50 [2] is on record?
A: 5.04 µM

Q: What about the IC50 [1] of the same compound?
A: 10.6 µM

Q: For CC1(c2nc(-c3cccc4[nH]ccc34)nc3c2OCC2COCCN32)CCCS1(=O)=O (stereo not given), which IC50 [2] is on record?
A: 10 µM

Q: And the IC50 [1]?
A: 6.9 µM

Q: With CNc1nc2ccccc2n1-c1nc2c(c(C3(S(C)(=O)=O)CCOCC3)n1)OCCC1COCCN21 (stereo not given) as the compound, how does the IC50 [2] read?
A: 10 µM

Q: And the IC50 [1]?
A: ≥ 50 µM

Q: How did the IC50 [2] turn out when CC(C)(O)c1nc(-c2cccc3[nH]ccc23)nc2c1OCC1COCCN21 (stereo not given) was run?
A: 7.21 µM

Q: What about the IC50 [1] of the same compound?
A: 2.39 µM

Q: For CS(=O)(=O)C1(c2nc(-c3cccc4[nH]ccc34)nc3c2OCC2COCCN32)CC1 (stereo not given), which IC50 [2] is on record?
A: ≥ 25 µM

Q: And the IC50 [1]?
A: 2.5 µM

Q: With CC(C)(C#N)c1nc(-c2cccc3[nH]ccc23)nc2c1OCC1COCCN21 (stereo not given) as the compound, how does the IC50 [2] read?
A: 10 µM

Q: What about the IC50 [1] of the same compound?
A: 1.67 µM

Q: Which results are given for CS(=O)(=O)Cc1nc(-c2cccc3[nH]ccc23)nc2c1OCC1COCCN21 (stereo not given)?
A: IC50 [2]: 10 µM; IC50 [1]: 6.6 µM

Q: CC(C)(O)c1nc(-c2cc(F)cc3[nH]ccc23)nc2c1OC[C@@H]1COCCN21 was tested. Which IC50 [2] did it give?
A: 0.886 µM

Q: What about the IC50 [1] of the same compound?
A: 2.27 µM

Q: Which results are given for CNc1nc2cc(Cl)ccc2n1-c1nc2c(c(C3(S(C)(=O)=O)CCC3)n1)OC[C@@H]1COCCN21?
A: IC50 [2]: 10 µM; IC50 [1]: ≥ 50 µM

Q: With CNc1nc2ccccc2n1-c1nc2c(c(C(C)(C)O)n1)OCC1COCCN21 (stereo not given) as the compound, how does the IC50 [2] read?
A: 3.18 µM

Q: And the IC50 [1]?
A: 2.17 µM

Q: CNc1nc2ccccc2n1-c1nc2c(c(C(C)(C)S(C)(=O)=O)n1)OCC1COCCN21 (stereo not given) was tested. Which IC50 [1] did it give?
A: 2.8 µM

Q: CC(C)(c1nc(-c2cccc3[nH]ccc23)nc2c1OCC1COCCN21)S(C)(=O)=O (stereo not given) was tested. Which IC50 [2] did it give?
A: 17.3 µM

Q: And the IC50 [1]?
A: 1.7 µM

Q: Which IC50 [2] does the source give for CS(=O)(=O)C1(c2nc(-c3cccc4[nH]ccc34)nc3c2OC[C@@H]2COCCN32)CCC1 here?
A: 10 µM

Q: And the IC50 [1]?
A: 3.16 µM

Q: With CS(=O)(=O)C1(c2nc(-c3cccc4[nH]ccc34)nc3c2OC[C@H]2COCCN32)CCOCC1 as the compound, how does the IC50 [1] read?
A: 11.5 µM
